Results: article PMC2962730 (Journal of neurochemistry, 2010)
Where a chain is given by its changes, count along the chain named.

What was measured:
hVAChT A321F = molecular target: T1, hVAChT A321F (Homo sapiens, UniProt Q16572, A321F); test: [3H]vesamicol saturation binding; conditions: pH 7.4
T1 sequence (Q16572 1-532 A321F): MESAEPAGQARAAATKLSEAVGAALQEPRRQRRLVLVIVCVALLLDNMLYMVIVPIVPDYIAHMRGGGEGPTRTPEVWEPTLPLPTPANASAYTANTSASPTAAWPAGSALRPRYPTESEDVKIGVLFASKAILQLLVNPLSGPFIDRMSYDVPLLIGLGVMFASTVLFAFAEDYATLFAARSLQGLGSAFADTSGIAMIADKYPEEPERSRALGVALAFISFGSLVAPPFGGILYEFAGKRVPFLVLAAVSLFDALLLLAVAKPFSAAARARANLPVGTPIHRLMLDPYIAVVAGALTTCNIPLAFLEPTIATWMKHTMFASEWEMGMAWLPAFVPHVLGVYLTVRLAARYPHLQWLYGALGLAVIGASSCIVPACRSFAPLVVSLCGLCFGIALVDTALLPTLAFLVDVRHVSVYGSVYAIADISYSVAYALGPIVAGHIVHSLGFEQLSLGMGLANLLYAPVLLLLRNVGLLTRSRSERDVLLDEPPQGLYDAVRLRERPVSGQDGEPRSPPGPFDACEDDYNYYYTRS

VAChT F335A = conditions: ref Ojeda et al. (2004); cited from earlier work
hVAChT A330V = molecular target: T2, hVAChT A330V (Homo sapiens, UniProt Q16572, A330V); test: [3H]ACh transport; type: biochemical
T2 sequence (Q16572 1-532 A330V): T1 sequence (Q16572 1-532 A321F) with F321A, A330V

hVAChT A334F = molecular target: T3, hVAChT A334F (Homo sapiens, UniProt Q16572, A334F); test: [3H]ACh transport; type: biochemical
T3 sequence (Q16572 1-532 A334F): T1 sequence (Q16572 1-532 A321F) with F321A, A334F

[1] = tested on: rat VAChT (rVAChT) W331 mutants; conditions: mutations of W331 in rVAChT; ref Ojeda et al. 2004; cited from earlier work
hVAChT F392A = molecular target: T4, hVAChT F392A (Homo sapiens, UniProt Q16572, F392A); test: ACh equilibrium binding by competition against [3H]vesamicol
T4 sequence (Q16572 1-532 F392A): T1 sequence (Q16572 1-532 A321F) with F321A, F392A

Compound	Bmax, maximal specific [3H]vesamicol binding (VAChT expression level) (hVAChT A321F)	weaker binding of vesamicol (VAChT F335A)	Vmax/Bmax, ACh transport normalized to Bmax (hVAChT A330V; pH 7.4)	Km (hVAChT A330V; read-out: KM, Michaelis-Menten constant for ACh transport, pH 7.4)	ACh transport rate relative to wild-type (as fast as) (hVAChT A334F; A334F hVAChT vs wild-type)	Vmax/Bmax, ACh transport normalized to Bmax (hVAChT A334F; A334F hVAChT, pH 7.4)	Km (hVAChT A334F; read-out: KM, Michaelis-Menten constant for ACh transport, A334F hVAChT, pH 7.4)	decrease in ACh affinity (equilibrium) [1]	Kd (hVAChT F392A)	FHA, fraction of the ACh sites that have high affinity (hVAChT F392A; F392A hVAChT, pH 7.4)
O[C@@H]1CCCC[C@H]1N1CCC(c2ccccc2)CC1 (racemic) [vesamicol, ( )-trans-2-(4-phenylpiperidino)cyclohexanol]	21 ± 1 pmol/mg	~ 3 fold	–	–	–	–	–	–	–	–
CC(=O)OCC[N+](C)(C)C [ACh, acetylcholine]	–	–	6.3 ± 1.3 min⁻¹	2200 ± 900 µM	about one-half	3.6 ± 0.8 min⁻¹	3000 ± 1300 µM	≤ 9 fold	7.9 ± 1.3 mM	0.91 ± 0.06
